Measurements: patent US9284325B2, “Spectinamides as anti-tuberculosis agents” (UNIVERSITY OF TENNESSEE RESEARCH FOUNDATION, priority 2009, dated 2016)
Structures can show the parent of a compound that is named as a salt.

Legend:
E. coli K12 ΔtolC = experiment: microbe, parasite or virus in culture; format: cell-based; details: Escherichia coli, read-out: MIC E. coli K12 ΔtolC
[1] = test system: Proteus vulgaris ATCC 33420; experiment: MIC determination by microbroth dilution; format: cell-based; details: ATCC33420
E. coli ribosomes = format: biochemical; details: for IC50, 50% inhibition of luciferase biosynthesis in S30 assay: E. coli S30 transcription/translation assay; for relative inhibitory activity on luciferase production: tested at 0.66 and 6.6 μM, FIG. 5
[2] = test system: Klebsiella pneumoniae ATCC 33495; experiment: MIC determination by microbroth dilution; format: cell-based; details: ATCC33495
[3] = test system: Strenotrophomonas maltophilia ATCC 13637; experiment: MIC determination by microbroth dilution; format: cell-based
B. anthracis Sterne 34F2 = experiment: microbe, parasite or virus in culture; format: cell-based, Bacillus anthracis; details: Bacillus anthracis, STERNE34F2, read-out: MIC B. anthracis 34F2
[4] = test system: Acinetobacter baumannii ATCC 19606; experiment: MIC determination by microbroth dilution; format: cell-based; details: ATCC19606
[5] = test system: S. aureus 8325 or strain ATCC 29213; experiment: MIC determination by microbroth dilution; format: cell-based, Staphylococcus aureus; details: Staphylococcus aureus, ATCC29213; S. aureus 8325 or strain ATCC 29213 (for 1471-1544)
E. coli K12 = experiment: MIC determination by microbroth dilution; format: cell-based, Escherichia coli; details: Escherichia coli, K12
[6] = test system: Proteus mirabilis ATCC 25933; experiment: MIC determination by microbroth dilution; format: cell-based; details: ATCC25933
[7] = test system: Strep. pyogenes ATCC 700294; experiment: MIC determination by microbroth dilution; format: cell-based, Streptococcus pyogenes; details: Streptococcus pyogenes, ATCC700294, read-out: MIC S. pyogenes
[8] = test system: Burkholderia cepacia ATCC 25416; experiment: MIC determination by microbroth dilution; format: cell-based; details: ATCC25416, read-out: MIC B. cepcia
[9] = test system: Strep. pneumoniae DAW27 or strain R6; experiment: MIC determination by microbroth dilution; format: cell-based, Streptococcus pneumoniae; details: Streptococcus pneumoniae; Strep. pneumoniae DAW27 or strain R6 (for 1443-1544); read-out: MIC S. pneumoniae
E. faecalis ATCC 33186 = experiment: MIC determination by microbroth dilution; format: cell-based, Enterococcus faecalis; details: Enterococcus faecalis, ATCC33186
P. aeruginosa PAO1 = experiment: MIC determination by microbroth dilution; format: cell-based, Pseudomonas aeruginosa; details: Pseudomonas aeruginosa
M. tuberculosis H37Rv = experiment: MIC determination by microbroth dilution, anti-tuberculosis activity; format: cell-based, Mycobacterium tuberculosis; details: Mycobacterium tuberculosis, H37RV, 168 h; read-out: MIC

Compound | MIC (E. coli K12 ΔtolC) | MIC [1] | IC50, 50% inhibition of luciferase biosynthesis in S30 assay (E. coli ribosomes) | MIC [2] | MIC [3] | MIC (B. anthracis Sterne 34F2) | MIC [4] | MIC [5] | MIC (E. coli K12) | MIC [6] | MIC [7] | MIC [8] | MIC [9] | MIC (E. faecalis ATCC 33186) | MIC (P. aeruginosa PAO1) | MIC (M. tuberculosis H37Rv) | relative inhibitory activity on luciferase production (E. coli ribosomes)
CN[C@@H]1[C@H](O)[C@H](NC)C2O[C@]3(O)C(OC2[C@H]1O)O[C@H](C)C[C@H]3NC(=O)Cc1ccncc1 (stereo partly drawn) [Compound 1413, 3′-Dihydro-3′-deoxy-4(R)-(pyridin-4-yl)acetylamino spectinomycin Dihydrochloride] | 50 µg/mL | > 200 µg/mL | 1.92 µg/mL | > 200 µg/mL | > 200 µg/mL | 200 µg/mL | > 200 µg/mL | 50 µg/mL | 200 µg/mL | > 200 µg/mL | 200 µg/mL | > 200 µg/mL | > 200 µg/mL | > 200 µg/mL | > 200 µg/mL | 100 µg/mL | 
CN[C@@H]1[C@H](O)[C@H](NC)C2O[C@]3(O)C(OC2[C@H]1O)O[C@H](C)C[C@H]3NCCC(C)C (stereo partly drawn) [Compound 1420, 3′-Dihydro-3′-deoxy-4(R)-(3-methyl)butylamino spectinomycin Trihydrochloride] | 25 µg/mL | > 200 µg/mL |  | > 200 µg/mL | 200 µg/mL | 50 µg/mL | > 200 µg/mL | 100 µg/mL | 100 µg/mL | > 200 µg/mL | 200 µg/mL | > 200 µg/mL | 100 µg/mL | 200 µg/mL | 200 µg/mL | 200 µg/mL | inhibited well
CN[C@@H]1[C@H](O)[C@H](NC)C2O[C@]3(O)C(OC2[C@H]1O)O[C@H](C)C[C@H]3NCc1ccco1 (stereo partly drawn) [Compound 1422, 3′-Dihydro-3′-deoxy-4(R)-furan-2yl-methylamino spectinomycin Trihydrochloride] | 12.5 µg/mL | > 200 µg/mL |  | > 200 µg/mL | > 200 µg/mL | 12.5 µg/mL | > 200 µg/mL | 25 µg/mL | 25 µg/mL | > 200 µg/mL | 200 µg/mL | > 200 µg/mL | 50 µg/mL | 12.5 µg/mL | 25 µg/mL | 200 µg/mL | inhibited well
CN[C@@H]1[C@H](O)[C@H](NC)C2O[C@]3(O)C(OC2[C@H]1O)O[C@H](C)C[C@H]3NCc1cccc(OC)c1 (stereo partly drawn) [Compound 1423, 3′-Dihydro-3′-deoxy-4(R)-(3-methoxy)benzylamino spectinomycin Trihydrochloride] | 100 µg/mL | > 200 µg/mL |  | > 200 µg/mL | > 200 µg/mL | 200 µg/mL | > 200 µg/mL | 200 µg/mL | 200 µg/mL | > 200 µg/mL | 25 µg/mL | > 200 µg/mL | 200 µg/mL | > 200 µg/mL | > 200 µg/mL | 200 µg/mL | inhibited well
CN[C@@H]1[C@H](O)[C@H](NC)C2O[C@]3(O)C(OC2[C@H]1O)O[C@H](C)C[C@H]3NCc1ccc(F)cc1 (stereo partly drawn) [Compound 1424, 3′-Dihydro-3′-deoxy-4(R)-4-fluoro)benzylamino spectinomycin Trihydrochloride] | 50 µg/mL | > 200 µg/mL | 0.80 µg/mL | > 200 µg/mL | > 200 µg/mL | 100 µg/mL | > 200 µg/mL | 50 µg/mL | 200 µg/mL | > 200 µg/mL | 50 µg/mL | > 200 µg/mL | 25 µg/mL | 100 µg/mL | 200 µg/mL | 200 µg/mL | inhibited well
CN[C@@H]1[C@H](O)[C@H](NC)C2O[C@]3(O)C(OC2[C@H]1O)O[C@H](C)C[C@H]3NCc1ccc(C)cc1 (stereo partly drawn) [Compound 1425, 3′-Dihydro-3′-deoxy-4(R)-(4-methyl)benzylamino spectinomycin Trihydrochloride] | 100 µg/mL | > 200 µg/mL |  | > 200 µg/mL | > 200 µg/mL | 100 µg/mL | > 200 µg/mL | 50 µg/mL | 200 µg/mL | > 200 µg/mL | 12.5 µg/mL | > 200 µg/mL | 100 µg/mL | 100 µg/mL | 200 µg/mL | 1000 µg/mL | inhibited well
CN[C@@H]1[C@H](O)[C@H](NC)C2O[C@]3(O)C(OC2[C@H]1O)O[C@H](C)C[C@H]3NC(=O)Cc1ncccn1 (stereo partly drawn) [Compound 1439, 3′-Dihydro-3′-deoxy-4(R)-(pyrimidin-2yl)acetylamino spectinomycin Dihydrochloride] | 12.5 µg/mL | > 200 µg/mL | 2.63 µg/mL | > 200 µg/mL | > 200 µg/mL | 50 µg/mL | > 200 µg/mL | 25 µg/mL | 100 µg/mL | > 200 µg/mL | > 200 µg/mL | > 200 µg/mL | 12.5 µg/mL | 50 µg/mL | 50 µg/mL | > 200 µg/mL | less active than 1329
CN[C@@H]1[C@H](O)[C@H](NC)C2O[C@]3(O)C(OC2[C@H]1O)O[C@H](C)C[C@H]3NC(=O)Cc1cscn1 (stereo partly drawn) [Compound 1443, 3′-Dihydro-3′-deoxy-4(R)-(thiazol-4-yl)acetylamino spectinomycin trihydrobromide] | 200 µg/mL | > 200 µg/mL | 0.29 µg/mL | 100 µg/mL | > 200 µg/mL | 1.6 µg/mL | > 200 µg/mL | 50 µg/mL | 100 µg/mL | > 200 µg/mL | 6.25 µg/mL | > 200 µg/mL | 12.5 µg/mL | 50 µg/mL | > 200 µg/mL | 1.6 µg/mL | 
CN[C@@H]1[C@H](O)[C@H](NC)C2O[C@]3(O)C(OC2[C@H]1O)O[C@H](C)C[C@H]3NC(=O)Cc1csc(N)n1 (stereo partly drawn) [Compound 1444, 3′-Dihydro-3′-deoxy-4(R)-(2-aminothiazol-4-yl)acetylamino spectinomycin trihydrobromide] | 200 µg/mL | > 200 µg/mL | 0.12 µg/mL | 100 µg/mL | > 200 µg/mL | 6.25 µg/mL | > 200 µg/mL | 100 µg/mL | 100 µg/mL | > 200 µg/mL | 25 µg/mL | > 200 µg/mL | 25 µg/mL | 50 µg/mL | > 200 µg/mL | 3.1 µg/mL | 
CN[C@@H]1[C@H](O)[C@H](NC)C2O[C@]3(O)C(OC2[C@H]1O)O[C@H](C)C[C@H]3NC(=O)Cc1ccc(F)cn1 (stereo partly drawn) [Compound 1445, 3′-Dihydro-3′-deoxy-4(R)-(5-fluoropyridin-2-yl)acetylamino spectinomycin trihydrobromide] | 200 µg/mL | > 200 µg/mL | 0.25 µg/mL | 100 µg/mL | > 200 µg/mL | 25 µg/mL | > 200 µg/mL | 25 µg/mL | 100 µg/mL | > 200 µg/mL | 12.5 µg/mL | > 200 µg/mL | 12.5 µg/mL | 25 µg/mL | > 200 µg/mL | 0.4 µg/mL | 
CN[C@@H]1[C@H](O)[C@H](NC)C2O[C@]3(O)C(OC2[C@H]1O)O[C@H](C)C[C@H]3NC(=O)Cc1ccc(OC)cc1 (stereo partly drawn) [Compound 1446, 3′-Dihydro-3′-deoxy-4(R)-(4-methoxy-phenyl)acetylamino spectinomycin Dihydrochloride] | > 200 µg/mL | > 200 µg/mL | 0.68 µg/mL | 200 µg/mL | > 200 µg/mL | 100 µg/mL | > 200 µg/mL | > 200 µg/mL | 200 µg/mL | > 200 µg/mL | 6.25 µg/mL | > 200 µg/mL | 6.25 µg/mL | 200 µg/mL | > 200 µg/mL | 12.5 µg/mL | 
CN[C@@H]1[C@H](O)[C@H](NC)C2O[C@]3(O)C(OC2[C@H]1O)O[C@H](C)C[C@H]3NC(=O)Cc1cccc(F)c1F (stereo partly drawn) [Compound 1447, 3′-Dihydro-3′-deoxy-4(R)-(2,3-difluoro-phenyl)acetylamino spectinomycin Dihydrochloride] | > 200 µg/mL | > 200 µg/mL | 0.22 µg/mL | 200 µg/mL | > 200 µg/mL | 100 µg/mL | > 200 µg/mL | > 200 µg/mL | 200 µg/mL | > 200 µg/mL | 6.25 µg/mL | > 200 µg/mL | 6.25 µg/mL | 100 µg/mL | > 200 µg/mL | 50 µg/mL | 
